{
  "source": "patent US8742082B2",
  "about": "“Compositions and methods for influencing satiety, lipid metabolism, and fat utilization” (Nestec S.A., priority 2008, dated 2014)",
  "assay_type_in_all_cases": "in vivo",
  "key": {"Adiponectin": {"test_system": "Adiponectin", "test": "Real-time PCR gene expression in peripheral tissues: adiponectin", "conditions": "C57bl6j mice, high fat diet, 100 mg/kg/body weight in diet, 5 weeks", "experimental": "(§1) The expression of 45 genes was measured by real-time PCR in peripheral tissues to identify genes that were differentially expressed in response to oral administration of oleoylethanolamide (OEA) or a non-hydrolysable OEA analog (KDS 5104), which affect satiety, lipid metabolism, fat utilization, food intake, and body fat mass.\n(§2) Animals, diet, and experimental design. Adult male C57bl6j mice purchased at 8 weeks of age were individually housed and maintained ad libitum on high fat diet and water for 2 weeks. Seven mice were randomly allocated in 3 groups and fed with a high fat diet (lipids represented 50% of daily energy) for 2 weeks. For one kilogram, the composition of the high fat diet was: 235 g casein, 201 g saccharose, 3.5 g L-cystine, 85 g starch, 116 g maltodextrin, 60 g cellulose, 12 g vitamins mix (AIN-93M, UPAE, Jouy-en-Josas, France), 51.5 g mineral mix (AIN-93Vx, UPAE, Jouy-en-Josas, France), and 236 g lard. Then, either OEA or KDS 5104 was added to the diet at a concentration of 100 mg/kg/body weight. The mice were kept under treatment for 5 weeks.\n(§3) Sampling. At the end of the experimental period, mice were sacrificed by blood drawing (cardiac puncture) after anesthesia with isoflurane. Plasma was obtained by centrifugation (1,000 g for 10 min at 4° C.). Mesenteric, epididymal, inguinal and peritoneal adipose depots, as well as liver, stomach, small intestine mucosa, pancreas, and gastrocnemian muscle were removed and frozen into liquid nitrogen. Plasma, urine, feces, and organ samples were kept at −80° C. until analysis.\n(§4) RNA extraction and gene expression. Total RNA from liver, intestine mucous membrane, adipose tissues, gastrocnemian muscle, pancreas and stomach were extracted with TRIzol reagent (Invitrogen, Carlsbad, USA) according to the manufacturer's instruction. The RNA concentration was determined on nanodrop from the absorbance at 260 nm. […] Real-time quantitative PCR (RT-qPCR) were performed on cDNA obtained as described above using a high through put system (Biomek 3000, Beckman & Coulter, Fullerton, USA) and a Lightcycler 480 (Roche/Hitachi, Basel, Switzerland) with SYBR Green Master mix+kit (Eurogentec, Philadelphia, USA). […] Values were expressed as ratio of RNA levels relative to control mice (diets with 0 mg of OEA/kg/body weight) using ΔΔ(Ct) (Livak K J & Schmittgen T D, 2001, Methods 25:402-8). Gene expression of the following genes was measured (abbreviation and GenBank Accession shown in parentheses).\nStatistical analysis. […] Daily food intake was analyzed using two-way ANOVA on Statview software. […] For statistical analysis of the gene expression data, values were calculated relative to 18S expression for each mouse and gene."}, "[1]": {"test_system": "Fatty acid transporter/cluster of differentiation 36 (FAT/CD 36)", "test": "Real-time PCR gene expression in peripheral tissues: FAT/CD36", "conditions": "C57bl6j mice, high fat diet, 100 mg/kg/body weight in diet, 5 weeks", "experimental": "as §1, §2, §3\n(§5) RNA extraction and gene expression. Total RNA from liver, intestine mucous membrane, adipose tissues, gastrocnemian muscle, pancreas and stomach were extracted with TRIzol reagent (Invitrogen, Carlsbad, USA) according to the manufacturer's instruction. The RNA concentration was determined on nanodrop from the absorbance at 260 nm. Retro-transcription PCRs to synthesize cDNA were performed using an Applied Biosystem Thermal Cycler 2720 and Superscript II (Invitrogen, Carlsbad, USA) according to manufacturer's protocol. Real-time quantitative PCR (RT-qPCR) were performed on cDNA obtained as described above using a high through put system (Biomek 3000, Beckman & Coulter, Fullerton, USA) and a Lightcycler 480 (Roche/Hitachi, Basel, Switzerland) with SYBR Green Master mix+kit (Eurogentec, Philadelphia, USA). Primers for the selected genes were generated using online informatics assistance from the Lightcycler manufacturer (Roche). Databases used to identify the genes were (1) the NCBI database (GenBank) and (2) the IHOP (Information Hyperlinked over Protein) database (www.ihop-net.org/UniPub/iHOP/bng/). Values were expressed as ratio of RNA levels relative to control mice (diets with 0 mg of OEA/kg/body weight) using ΔΔ(Ct) (Livak K J & Schmittgen T D, 2001, Methods 25:402-8). Gene expression of the following genes was measured (abbreviation and GenBank Accession shown in parentheses).\n(§6) Statistical analysis. Results are presented as means±standard error of the means (SEM). Statistical analysis of physiological parameters and gene expression data was performed by one-way ANOVA on Statview software (SAS Institute, Cary, USA). Daily food intake was analyzed using two-way ANOVA on Statview software. Statistical significance was set up at the P<0.05 level, the P<0.01 level and the P<0.001 level. For statistical analysis of the gene expression data, values were calculated relative to 18S expression for each mouse and gene."}, "[2]": {"test": "Chronic oral OEA in high fat diet: plasma triglycerides and cholesterol", "conditions": "C3H mice, 4 weeks; for Plasma triglycerides, change: P<0.05", "from_the_text": "The physiological and biochemical effects of chronic oral OEA administration were investigated. Mice were chronically fed with OEA, provided as a supplement during 4 weeks, to study the effect on body weight gain and cumulative food intake, among other parameters.\nAnimals, diet and experimental design. Adult male C3H mice purchased at 8 weeks of age were individually housed and maintained ad libitum on different diets and water for 2 weeks. Seven mice were allocated in 3 groups by randomization by weight, and fed with a high fat diet (lipids represented 50% of daily energy) during 2 weeks. The composition of the high fat diet per kg was: 284.5 g of corn starch, 89.5 g of saccharose, 250 g of casein, 50 g of cellulose, 10 g of a mix of vitamins (V1001), 35 g of a mix of minerals (S10026) and 281 g of canola oil (UPAE, Jouy en Josas, France). Then, OEA was added to the diets at different levels to provide 0, 10, or 100 mg OEA/kg body weight. The mice were kept on each respective diet for 4 weeks. During the nutritional intervention, daily food intake was monitored and the mice were weighed 3 times a week.\nSampling. At the end of the experimental period, mice were sacrificed by blood drawing after anesthesia with isoflurane. Plasma was obtained by centrifugation (1,000 g for 10 min at 4° C.). Mesenteric, epididymal, inguinal and peritoneal adipose depots, as well as liver, stomach, small intestine mucosa and gastrocnemian muscle were excised and frozen into liquid nitrogen. Plasma and organ samples were kept at −80° C. until analysis. Triglycerides, glucose, total cholesterol and HDL cholesterol were directly measured on plasma samples collected during the sacrifice by enzymatic procedures, using a Beckman Coulter Systems SYNCHRON LX 20 (Beckman Coulter, Fullerton, USA) (oxidase method, Beckman Coulter for glucose, GPO method, Beckman Coulter for TG, oxidase and esterase method, Beckman Coulter for cholesterol). HDL were isolated by specific solubilization, using a precipitation isolation kit (Beckman Coulter, Fullerton, USA).\nStatistical analysis. Results were determined as mean±standard error of the mean (SEM). Statistical analysis of physiological parameters was performed by one-way ANOVA on Statview software (SAS institute, Cary, USA). Statistical significance was set up at the P<0.05 level."}, "CPT1": {"test_system": "CPT1", "test": "Real-time PCR gene expression in peripheral tissues: CPT1", "conditions": "C57bl6j mice, high fat diet, 100 mg/kg/body weight in diet, 5 weeks", "experimental": "as §1, §2, §3, §5\nas §6, with “Results are presented as means±standard error of the means (SEM).” left out"}, "[3]": {"test_system": "G protein coupled receptor 119 (GPR 119)", "test": "Real-time PCR gene expression in peripheral tissues: GPR119", "conditions": "proximal intestine; C57bl6j mice, high fat diet, 100 mg/kg/body weight in diet, 5 weeks", "experimental": "as §1\nAnimals, diet, and experimental design. Adult male C57bl6j mice purchased at 8 weeks of age were individually housed and maintained ad libitum on high fat diet and water for 2 weeks. Seven mice were randomly allocated in 3 groups and fed with a high fat diet (lipids represented 50% of daily energy) for 2 weeks. […]\nas §4, with “Total RNA from liver, intestine mucous membrane, adipose tissues, gastrocnemian muscle, pancreas and stomach were extracted with TRIzol reagent (Invitrogen, Carlsbad, USA) according to the manufacturer's instruction.” left out, “parentheses). […]” for “parentheses).”"}, "Leptin": {"test_system": "Leptin", "test": "Real-time PCR gene expression in peripheral tissues: leptin", "conditions": "C57bl6j mice, high fat diet, 100 mg/kg/body weight in diet, 5 weeks", "experimental": "as §1, §2, §3, §5\nas §6, with “Results are presented as means±standard error of the means (SEM).” left out"}},
  "data": [
    {"smiles": "CCCCCCCC/C=C\\CCCCCCCC(=O)NCCO", "note": "[OEA, N-oleoyl-ethanolamide]", "values": [
      {"measurement": "adiponectin at ep, ratio of RNA levels relative to control mice", "setting": "Adiponectin; epidydimal adipose tissue", "result": "−1.14"},
      {"measurement": "adiponectin at per, ratio of RNA levels relative to control mice", "setting": "Adiponectin; peritoneal adipose tissue", "result": "−2.08"},
      {"measurement": "FAT/CD36 at ep, ratio of RNA levels relative to control mice", "setting": "[1]; epidydimal adipose tissue", "result": "−1.88"},
      {"measurement": "FAT/CD36 l, ratio of RNA levels relative to control mice", "setting": "[1]; liver", "result": 1.45},
      {"measurement": "FAT/CD36 at per, ratio of RNA levels relative to control mice", "setting": "[1]; peritoneal adipose tissue", "result": "−1.81"},
      {"measurement": "FAT/CD36 i, ratio of RNA levels relative to control mice", "setting": "[1]; proximal intestine", "result": 1.61},
      {"measurement": "Plasma triglycerides, change", "setting": "[2]; 10 mg dose", "result": "−72", "unit": "%"},
      {"measurement": "plasma total cholesterol", "setting": "[2]; 10 mg/kg", "result": "trend to decreased"},
      {"measurement": "Plasma triglycerides, change", "setting": "[2]; 100 mg dose", "result": "−59", "unit": "%"},
      {"measurement": "plasma total cholesterol (decrease)", "setting": "[2]; 100 mg/kg body weight", "result": "reached statistical significance"},
      {"measurement": "CPT1 l, ratio of RNA levels relative to control mice", "setting": "CPT1; liver", "result": 1.74},
      {"measurement": "CPT1 p, ratio of RNA levels relative to control mice", "setting": "CPT1; pancreas", "result": 1.35},
      {"measurement": "CPT1 i, ratio of RNA levels relative to control mice", "setting": "CPT1; proximal intestine", "result": 2.00},
      {"measurement": "GPR119 i, ratio of RNA levels relative to control mice", "setting": "[3]", "result": 1.97},
      {"measurement": "leptin at ep, ratio of RNA levels relative to control mice", "setting": "Leptin; epidydimal adipose tissue", "result": 1.22},
      {"measurement": "leptin at per, ratio of RNA levels relative to control mice", "setting": "Leptin; peritoneal adipose tissue", "result": 3.44},
      {"measurement": "leptin s, ratio of RNA levels relative to control mice", "setting": "Leptin; stomach", "result": 1.41}
    ]}
  ]
}
